By IC50 is commonly meant the point on the concentration scale where inhibition reaches its midpoint. Read a high IC50 as a need for much substance.

The source of these data is ChEMBL document CHEMBL1155095, “Synthesis and cytotoxicity of aurilide analogs” (Bioorg Med Chem Lett, 2008).

Values after ≈ are worked out from the molar mass of the structure shown. A value given as a limit tells only on which side of the number the result lay.

The test system of this assay is HeLa. Description: Cytotoxicity against human HeLa S3 cells. In kind it is functional, cell-based.
For `CC/C=C(\C)[C@H]1OC(=O)[C@H](C)N(C)C(=O)[C@H](C(C)C)NC(=O)CN(C)C(=O)[C@@H](CC(C)C)N(C)C(=O)[C@H](C(C)C)NC(=O)[C@@H]([C@@H](C)CC)OC(=O)/C(C)=C/C[C@H](OC(=O)CCCCCNC(=O)CCC(=O)O)[C@@H]1C`, inhibition was half-maximal at 0.14 µg/mL (≈ 0.134 µM) (IC50).
`CC/C=C(\C)[C@H]1OC(=O)[C@H](C)N(C)C(=O)[C@H](C(C)C)NC(=O)CN(C)C(=O)[C@@H](CC(C)C)N(C)C(=O)[C@H](CCCCNC(=O)OC(C)(C)C)NC(=O)[C@@H]([C@@H](C)CC)OC(=O)/C(C)=C/C[C@H](O)[C@@H]1C` displayed a half-inhibitory concentration (IC50) of 0.032 µg/mL (≈ 0.0332 µM).
The same measure for `CC/C=C(\C)[C@H]1OC(=O)[C@H](C)N(C)C(=O)[C@H](C(C)C)NC(=O)CN(C)C(=O)[C@@H](CC(C)C)N(C)C(=O)[C@H](C(C)C)NC(=O)[C@@H]([C@@H](C)CC)OC(=O)/C(C)=C/C[C@H](OC(=O)CCCCCNC(=O)OCC2c3ccccc3-c3ccccc32)[C@@H]1C`: 0.42 µg/mL (≈ 0.359 µM); for `CC/C=C(\C)[C@H]1OC(=O)[C@H](C)N(C)C(=O)[C@H](C(C)C)NC(=O)CN(C)C(=O)[C@@H](CC(C)C)N(C)C(=O)[C@H](C(C)C)NC(=O)[C@@H]([C@@H](C)CC)OC(=O)/C(C)=C/C[C@H](O)[C@@H]1C` [AURILIDE]: 0.0024 µg/mL (≈ 0.00288 µM).
The result for `CC/C=C(\C)[C@H]1OC(=O)[C@H](C)N(C)C(=O)[C@H](C(C)C)NC(=O)CN(C)C(=O)[C@@H](CC(C)C)N(C)C(=O)[C@H](C(C)C)NC(=O)[C@@H]([C@@H](C)CC)OC(=O)/C(C)=C/CC[C@@H]1C` [DEOXYAURILIDE] reads 0.017 µg/mL (≈ 0.0208 µM).
The result for `CC/C=C(\C)[C@H]1OC(=O)[C@H](C)N(C)C(=O)[C@H](CCCCNC(=O)OC(C)(C)C)NC(=O)CN(C)C(=O)[C@@H](CC(C)C)N(C)C(=O)[C@H](C(C)C)NC(=O)[C@@H]([C@@H](C)CC)OC(=O)/C(C)=C/C[C@H](O)[C@@H]1C` reads 0.26 µg/mL (≈ 0.27 µM).
The compound `CC/C=C(\C)[C@H]1OC(=O)[C@H](C)N(C)C(=O)[C@@H](C(C)C)NC(=O)CN(C)C(=O)[C@@H](CC(C)C)N(C)C(=O)[C@H](C(C)C)NC(=O)[C@@H]([C@@H](C)CC)OC(=O)/C(C)=C/C[C@H](O)[C@@H]1C` came in with an IC50 greater than 4 µg/mL.
The same measure for `CC/C=C(\C)[C@H]1OC(=O)[C@H](C)N(C)C(=O)[C@@H](C(C)C)NC(=O)CN(C)C(=O)[C@@H](CC(C)C)N(C)C(=O)[C@H](C(C)C)NC(=O)[C@@H]([C@@H](C)CC)OC(=O)/C(C)=C/C[C@H](OC(=O)CCCCCNC(=O)CCC(=O)O)[C@@H]1C`: greater than 10 µg/mL; for `CC/C=C(\C)[C@H]1OC(=O)[C@H](CCCCNC(=O)OC(C)(C)C)N(C)C(=O)[C@H](C(C)C)NC(=O)CN(C)C(=O)[C@@H](CC(C)C)N(C)C(=O)[C@H](C(C)C)NC(=O)[C@@H]([C@@H](C)CC)OC(=O)/C(C)=C/C[C@H](O)[C@@H]1C`: 0.02 µg/mL (≈ 0.0202 µM).
